In ChEMBL document CHEMBL1201862, “PubChem BioAssay data set” (2004):
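Five concentrations, 48 hours, 96-well plates. Here, GI50 denotes the concentration required for 50% inhibition of growth.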 Active and inactive are the calls of the source. Cut-off read from the data, not from the text of the source: active = GI50 up to about 1.1 µM and inactive = higher.

Legend:
Assay in all cases: NCI tumour cell line growth inhibition, 48 h
SK-MEL-5 = test system: SK-MEL-5
OVCAR-4 = test system: OVCAR-4
OVCAR-3 = test system: OVCAR-3
U-251 = test system: U-251
SF-295 = test system: SF-295
HOP-62 = test system: HOP-62
CCRF-CEM = test system: CCRF-CEM
NCI-H23 = test system: NCI-H23
UO-31 = test system: UO-31
SK-MEL-28 = test system: SK-MEL-28
HOP-92 = test system: HOP-92
UACC-62 = test system: UACC-62
HT-29 = test system: HT-29
TK-10 = test system: TK-10
SN12C = test system: SN12C
OVCAR-5 = test system: OVCAR-5
NCI-H460 = test system: NCI-H460
LOX IMVI = test system: LOX IMVI
HCC 2998 = test system: HCC 2998
K562 = test system: K562

Measured: GI50

Nc1nc(Cl)nc2c1ncn2C1CCC(CO)O1 (stereo unspecified)
inactive: SK-MEL-5 > 100 µM | OVCAR-4 > 100 µM | OVCAR-3 > 100 µM | U-251 > 100 µM | SF-295 > 100 µM | HOP-62 > 100 µM | CCRF-CEM 3.46 µM | NCI-H23 87.9 µM | UO-31 > 100 µM | SK-MEL-28 > 100 µM | HOP-92 > 100 µM | UACC-62 > 100 µM | HT-29 > 100 µM | TK-10 > 100 µM | SN12C 95.7 µM | OVCAR-5 > 100 µM | NCI-H460 > 100 µM | LOX IMVI > 100 µM

Nc1ccc2c(c1)C(=O)N(O)C2=O
inactive: HCC 2998 92 µM | OVCAR-4 > 100 µM | K562 > 100 µM | OVCAR-3 > 100 µM | U-251 > 100 µM | SF-295 > 100 µM | HOP-62 > 100 µM | CCRF-CEM > 100 µM | NCI-H23 > 100 µM | UO-31 > 100 µM | SK-MEL-28 > 100 µM | UACC-62 > 100 µM | HT-29 > 100 µM | TK-10 > 100 µM | SN12C > 100 µM | OVCAR-5 > 100 µM | NCI-H460 > 100 µM | LOX IMVI > 100 µM

NC(Cc1ccc(OCc2ccccc2)cc1)C(=O)NC(Cc1ccccc1)C(=O)Oc1c(Cl)c(Cl)c(Cl)c(Cl)c1Cl (stereo unspecified)
inactive: HCC 2998 19.1 µM | SK-MEL-5 17.3 µM | OVCAR-4 17.4 µM | K562 53.1 µM | OVCAR-3 15.5 µM | U-251 17.1 µM | HOP-62 16.6 µM | CCRF-CEM > 100 µM | NCI-H23 16.8 µM | UO-31 16.4 µM | SK-MEL-28 16.5 µM | HOP-92 11.9 µM | UACC-62 17 µM | HT-29 17.5 µM | TK-10 15.3 µM | SN12C 17.3 µM | OVCAR-5 15.6 µM | NCI-H460 14.7 µM | LOX IMVI 14 µM

Cc1ccc2c(c1)C(=O)N(N(C)C)CC(=O)N2
inactive: HCC 2998 > 100 µM | SK-MEL-5 > 100 µM | OVCAR-4 > 100 µM | K562 > 100 µM | OVCAR-3 > 100 µM | U-251 > 100 µM | SF-295 > 100 µM | HOP-62 > 100 µM | CCRF-CEM > 100 µM | NCI-H23 > 100 µM | UO-31 > 100 µM | SK-MEL-28 > 100 µM | HOP-92 > 100 µM | UACC-62 > 100 µM | HT-29 > 100 µM | TK-10 > 100 µM | OVCAR-5 > 100 µM | NCI-H460 > 100 µM | LOX IMVI > 100 µM

CN(C)CCCNC(=O)N/N=C/c1ccccn1
inactive: HCC 2998 > 10 µM | SK-MEL-5 > 10 µM | OVCAR-4 > 10 µM | K562 > 10 µM | SF-295 > 10 µM | HOP-62 > 10 µM | CCRF-CEM > 10 µM | UO-31 > 10 µM | SK-MEL-28 > 10 µM | HOP-92 > 10 µM | UACC-62 > 10 µM | HT-29 > 10 µM | TK-10 > 10 µM | SN12C > 10 µM | OVCAR-5 > 10 µM | NCI-H460 > 10 µM | LOX IMVI > 10 µM

CC(C)C[C@@H](NC(=O)[C@@H](Cc1cccc2ccccc12)NC(=O)N1CCOCC1)B(O)O
inactive: HCC 2998 > 100 µM | OVCAR-4 > 100 µM | K562 57.9 µM | OVCAR-3 29.4 µM | U-251 > 100 µM | HOP-62 > 100 µM | NCI-H23 51.2 µM | UO-31 > 100 µM | SK-MEL-28 25.2 µM | HOP-92 37.1 µM | UACC-62 63.1 µM | HT-29 59.4 µM | TK-10 31.9 µM | SN12C 96.2 µM | OVCAR-5 75.3 µM | NCI-H460 > 100 µM | LOX IMVI 54.6 µM

O=c1ccc2nc3cc(Br)ccc3sc-2c1
inactive: HCC 2998 > 100 µM | SK-MEL-5 62.8 µM | OVCAR-4 29.4 µM | K562 22.4 µM | OVCAR-3 > 100 µM | U-251 > 100 µM | SF-295 > 100 µM | HOP-62 > 100 µM | CCRF-CEM 12.9 µM | NCI-H23 > 100 µM | UO-31 > 100 µM | SK-MEL-28 > 100 µM | HOP-92 > 100 µM | UACC-62 30.9 µM | HT-29 > 100 µM | TK-10 > 100 µM | SN12C > 100 µM | OVCAR-5 > 100 µM | NCI-H460 > 100 µM

c1ccc2c(c1)SP1Sc3ccccc3P21 (stereo unspecified)
inactive: HCC 2998 90.6 µM | SK-MEL-5 > 100 µM | OVCAR-4 72.3 µM | K562 > 87.3 µM | OVCAR-3 > 100 µM | U-251 > 100 µM | SF-295 > 100 µM | HOP-62 > 100 µM | CCRF-CEM > 87.1 µM | NCI-H23 > 100 µM | UO-31 68.1 µM | SK-MEL-28 > 90.4 µM | HOP-92 > 100 µM | UACC-62 > 85.1 µM | HT-29 74.6 µM | SN12C 63.4 µM | OVCAR-5 > 100 µM | NCI-H460 > 100 µM | LOX IMVI > 83.6 µM

COc1ccc(C2CC(c3c(O)ccc4ccccc34)=NN2)cc1OC (stereo unspecified)
inactive: HCC 2998 2.22 µM | SK-MEL-5 2.82 µM | OVCAR-4 6.03 µM | K562 4.38 µM | OVCAR-3 4.46 µM | U-251 2.7 µM | SF-295 2.55 µM | HOP-62 3.86 µM | CCRF-CEM 4.85 µM | NCI-H23 3.22 µM | UO-31 2.11 µM | SK-MEL-28 5.16 µM | HOP-92 3.7 µM | UACC-62 3.29 µM | HT-29 1.89 µM | TK-10 3.91 µM | SN12C 4.32 µM | OVCAR-5 3.9 µM | NCI-H460 2.92 µM

[O-][n+]1c2c([n+]([O-])c3ccccc31)-c1cccc3cccc-2c13
inactive: HCC 2998 > 100 µM | SK-MEL-5 > 100 µM | OVCAR-4 > 100 µM | K562 > 100 µM | OVCAR-3 > 100 µM | U-251 43 µM | SF-295 34.3 µM | CCRF-CEM > 100 µM | NCI-H23 47.3 µM | UO-31 43 µM | HOP-92 81.3 µM | HT-29 > 100 µM | TK-10 > 100 µM | SN12C > 100 µM | NCI-H460 91.2 µM | LOX IMVI 63 µM

COc1cc2c(cc1OC)CCN=C2
inactive: HCC 2998 > 100 µM | SK-MEL-5 > 100 µM | OVCAR-4 > 100 µM | OVCAR-3 > 100 µM | U-251 > 100 µM | SF-295 > 100 µM | HOP-62 > 100 µM | CCRF-CEM > 100 µM | NCI-H23 > 100 µM | UO-31 > 100 µM | SK-MEL-28 > 100 µM | HOP-92 > 100 µM | UACC-62 > 100 µM | HT-29 > 100 µM | TK-10 > 100 µM | SN12C > 100 µM | OVCAR-5 > 100 µM | NCI-H460 66.5 µM | LOX IMVI > 100 µM

COC1CCC(O)C(CO)O1 (stereo unspecified)
inactive: HCC 2998 > 100 µM | SK-MEL-5 > 100 µM | OVCAR-4 > 100 µM | K562 11.2 µM | OVCAR-3 41.4 µM | U-251 > 10 µM | SF-295 > 100 µM | HOP-62 > 100 µM | CCRF-CEM 10.9 µM | NCI-H23 > 100 µM | UO-31 > 100 µM | SK-MEL-28 > 100 µM | HOP-92 > 100 µM | UACC-62 > 100 µM | HT-29 > 100 µM | TK-10 > 100 µM | SN12C > 100 µM | OVCAR-5 > 100 µM | NCI-H460 > 100 µM | LOX IMVI 23.3 µM

CN(C)C(=O)OCOC(=O)N(C)C
inactive: HCC 2998 > 91.8 µM | SK-MEL-5 > 100 µM | OVCAR-4 > 100 µM | K562 > 100 µM | OVCAR-3 > 100 µM | U-251 > 100 µM | SF-295 > 100 µM | HOP-62 > 100 µM | CCRF-CEM > 100 µM | NCI-H23 > 100 µM | UO-31 > 100 µM | SK-MEL-28 > 100 µM | HOP-92 > 92.5 µM | UACC-62 > 100 µM | HT-29 > 100 µM | SN12C > 100 µM | OVCAR-5 > 100 µM | NCI-H460 > 100 µM | LOX IMVI > 100 µM

CC1(C)OC2CC(=O)OCC23C1CC(=O)C1(C)C3CCC2(C)C(c3ccoc3)OC(=O)C3OC321 (stereo unspecified)
inactive: HCC 2998 > 125 µM | SK-MEL-5 > 125 µM | OVCAR-4 > 125 µM | K562 78.9 µM | OVCAR-3 > 125 µM | U-251 > 125 µM | SF-295 > 125 µM | HOP-62 > 125 µM | CCRF-CEM > 125 µM | NCI-H23 > 125 µM | UO-31 > 125 µM | SK-MEL-28 > 125 µM | UACC-62 > 125 µM | HT-29 > 125 µM | SN12C > 39.5 µM | OVCAR-5 > 125 µM | NCI-H460 > 125 µM | LOX IMVI > 125 µM

O=C(O)C12CCCC(CCC1)C2
inactive: SK-MEL-5 > 100 µM | OVCAR-4 > 100 µM | K562 > 100 µM | OVCAR-3 > 100 µM | U-251 > 100 µM | SF-295 > 100 µM | HOP-62 > 100 µM | CCRF-CEM > 100 µM | NCI-H23 > 100 µM | UO-31 > 100 µM | SK-MEL-28 > 100 µM | HOP-92 > 100 µM | UACC-62 > 100 µM | HT-29 > 100 µM | TK-10 > 100 µM | SN12C > 100 µM | OVCAR-5 > 100 µM | NCI-H460 > 100 µM | LOX IMVI > 100 µM
